From US20070128217A1 (priority 2003, published 2007)

Experiments:
[1] = test system: control sera (pooled serum of ten healthy LUMC hospital workers; commercial negative donor pooled serum from the Dutch bloodbank); type: binding, human; parameters: Binding of Control serum LUMC to linear peptides / Binding of Control serum Blood-bank to linear peptides / Binding of Control serum LUMC to looped peptides / Binding of Control Serum Blood-Bank to Looped peptides / Binding of Control serum LUMC to linear peptides of the protein M of SARS-CoV Urbani / Binding of Control serum Blood-bank to linear peptides of the protein M of SARS-CoV Urbani / Binding of Control serum LUMC to looped peptides of the protein M of SARS-CoV Urbani / Binding of Control Serum Blood-Bank to Looped peptides of the protein M of SARS-CoV Urbani: unit not given here
[2] = test system: rabbit serum obtained by immunizing a rabbit with the SARS-CoV strain Frankfurt 1; type: binding; parameters: Binding of a rabbit serum to linear peptides / Binding of a rabbit serum to looped peptides / Rabbit serum linear peptides / Rabbit serum looped peptides / Binding of a rabbit serum to linear peptides of protein N of SARS-CoV Urbani (Rabbit serum linear peptides) / Binding of a rabbit serum to looped/cyclic peptides of protein N of SARS-CoV Urbani (Rabbit serum looped peptides): unit not given here

**Q.** With NTDHAGSNDNIALLV as the sequence, how does the “Binding of Control Serum Blood-Bank to Looped peptides of the protein M of SARS-CoV Urbani” value [1] read?
**A.** 1.0

**Q.** And the “Binding of Control serum Blood-bank to linear peptides of the protein M of SARS-CoV Urbani” value [1]?
**A.** 0.8

**Q.** And the “Binding of Control serum LUMC to linear peptides of the protein M of SARS-CoV Urbani” value [1]?
**A.** 0.5

**Q.** What about the “Binding of Control serum LUMC to looped peptides of the protein M of SARS-CoV Urbani” value [1] of the same sequence?
**A.** 0.9

**Q.** What about the “Rabbit serum linear peptides” value [2] of the same sequence?
**A.** 0.4

**Q.** What about the “Rabbit serum looped peptides” value [2] of the same sequence?
**A.** 0.4

**Q.** How did the “Binding of Control Serum Blood-Bank to Looped peptides” value [1] turn out when NVTINCQDPAGGALI was run?
**A.** 0.7

**Q.** And the “Binding of Control serum Blood-bank to linear peptides” value [1]?
**A.** 0.8

**Q.** What about the “Binding of Control serum LUMC to linear peptides” value [1] of the same sequence?
**A.** 0.6

**Q.** And the “Binding of Control serum LUMC to looped peptides” value [1]?
**A.** 0.7

**Q.** What about the “Rabbit serum linear peptides” value [2] of the same sequence?
**A.** 0.6

**Q.** And the “Rabbit serum looped peptides” value [2]?
**A.** 0.5

**Q.** For NWVTGGIAIAMACIV, which “Binding of Control Serum Blood-Bank to Looped peptides of the protein M of SARS-CoV Urbani” value [1] is on record?
**A.** 0.6

**Q.** What about the “Binding of Control serum Blood-bank to linear peptides of the protein M of SARS-CoV Urbani” value [1] of the same sequence?
**A.** 0.7

**Q.** And the “Binding of Control serum LUMC to linear peptides of the protein M of SARS-CoV Urbani” value [1]?
**A.** 0.8

**Q.** What about the “Binding of Control serum LUMC to looped peptides of the protein M of SARS-CoV Urbani” value [1] of the same sequence?
**A.** 0.9

**Q.** What about the “Rabbit serum linear peptides” value [2] of the same sequence?
**A.** 0.2

**Q.** And the “Rabbit serum looped peptides” value [2]?
**A.** 0.3

**Q.** What does the source list for NYDYCIPYNSVTDTI?
**A.** Binding of Control Serum Blood-Bank to Looped peptides [1]: 0.6; Binding of Control serum Blood-bank to linear peptides [1]: 0.6; Binding of Control serum LUMC to linear peptides [1]: 0.6; Binding of Control serum LUMC to looped peptides [1]: 0.7; Binding of a rabbit serum to linear peptides [2]: 0.1; Binding of a rabbit serum to looped peptides [2]: 0.5

**Q.** For NYFVCWHTHNYDYCI, which “Binding of Control Serum Blood-Bank to Looped peptides” value [1] is on record?
**A.** 0.6

**Q.** And the “Binding of Control serum Blood-bank to linear peptides” value [1]?
**A.** 0.6

**Q.** And the “Binding of Control serum LUMC to linear peptides” value [1]?
**A.** 0.6

**Q.** What about the “Binding of Control serum LUMC to looped peptides” value [1] of the same sequence?
**A.** 0.6

**Q.** What about the “Binding of a rabbit serum to linear peptides” value [2] of the same sequence?
**A.** 0.1

**Q.** What about the “Binding of a rabbit serum to looped peptides” value [2] of the same sequence?
**A.** 0.5

**Q.** For PAMDPIYDEPTTTTS, which “Binding of Control Serum Blood-Bank to Looped peptides” value [1] is on record?
**A.** 0.5

**Q.** And the “Binding of Control serum Blood-bank to linear peptides” value [1]?
**A.** 0.4

**Q.** What about the “Binding of Control serum LUMC to linear peptides” value [1] of the same sequence?
**A.** 0.4

**Q.** What about the “Binding of Control serum LUMC to looped peptides” value [1] of the same sequence?
**A.** 0.4

**Q.** What about the “Binding of a rabbit serum to linear peptides” value [2] of the same sequence?
**A.** 0.1

**Q.** And the “Binding of a rabbit serum to looped peptides” value [2]?
**A.** 0.4

**Q.** How did the “Binding of Control Serum Blood-Bank to Looped peptides” value [1] turn out when PKLKEDYQIGGYSED was run?
**A.** 0.5

**Q.** And the “Binding of Control serum Blood-bank to linear peptides” value [1]?
**A.** 0.4

**Q.** And the “Binding of Control serum LUMC to linear peptides” value [1]?
**A.** 0.4

**Q.** What about the “Binding of Control serum LUMC to looped peptides” value [1] of the same sequence?
**A.** 0.7

**Q.** And the “Binding of a rabbit serum to linear peptides” value [2]?
**A.** 0.1

**Q.** What about the “Binding of a rabbit serum to looped peptides” value [2] of the same sequence?
**A.** 0.6

**Q.** Which “Binding of Control Serum Blood-Bank to Looped peptides of the protein M of SARS-CoV Urbani” value [1] does the source give for PLGRCDIKDLPKEIT here?
**A.** 0.9

**Q.** And the “Binding of Control serum Blood-bank to linear peptides of the protein M of SARS-CoV Urbani” value [1]?
**A.** 0.6

**Q.** And the “Binding of Control serum LUMC to linear peptides of the protein M of SARS-CoV Urbani” value [1]?
**A.** 0.4

**Q.** What about the “Binding of Control serum LUMC to looped peptides of the protein M of SARS-CoV Urbani” value [1] of the same sequence?
**A.** 0.8

**Q.** And the “Rabbit serum linear peptides” value [2]?
**A.** 0.3

**Q.** And the “Rabbit serum looped peptides” value [2]?
**A.** 0.4

**Q.** With PNVTINCQDPAGGAL as the sequence, how does the “Binding of Control Serum Blood-Bank to Looped peptides” value [1] read?
**A.** 0.4

**Q.** And the “Binding of Control serum Blood-bank to linear peptides” value [1]?
**A.** 1.0

**Q.** And the “Binding of Control serum LUMC to linear peptides” value [1]?
**A.** 0.7

**Q.** And the “Binding of Control serum LUMC to looped peptides” value [1]?
**A.** 0.4

**Q.** What about the “Rabbit serum linear peptides” value [2] of the same sequence?
**A.** 0.6

**Q.** What about the “Rabbit serum looped peptides” value [2] of the same sequence?
**A.** 0.2

**Q.** PVKIDNASPASTVHA was tested. Which “Binding of Control Serum Blood-Bank to Looped peptides” value [1] did it give?
**A.** 0.7

**Q.** And the “Binding of Control serum Blood-bank to linear peptides” value [1]?
**A.** 0.7

**Q.** What about the “Binding of Control serum LUMC to linear peptides” value [1] of the same sequence?
**A.** 0.5

**Q.** And the “Binding of Control serum LUMC to looped peptides” value [1]?
**A.** 0.9

**Q.** What about the “Binding of a rabbit serum to linear peptides” value [2] of the same sequence?
**A.** 0.1

**Q.** What about the “Binding of a rabbit serum to looped peptides” value [2] of the same sequence?
**A.** 0.4

**Q.** Which “Binding of Control Serum Blood-Bank to Looped peptides” value [1] does the source give for QECVRGTTVLLKEPC here?
**A.** 0.9

**Q.** And the “Binding of Control serum Blood-bank to linear peptides” value [1]?
**A.** 0.9

**Q.** And the “Binding of Control serum LUMC to linear peptides” value [1]?
**A.** 1.0

**Q.** What about the “Binding of Control serum LUMC to looped peptides” value [1] of the same sequence?
**A.** 0.8

**Q.** And the “Rabbit serum linear peptides” value [2]?
**A.** 0.6

**Q.** What about the “Rabbit serum looped peptides” value [2] of the same sequence?
**A.** 0.5

**Q.** Which results are given for QHQNSKKTTKLVVIL?
**A.** Binding of Control Serum Blood-Bank to Looped peptides [1]: 0.6; Binding of Control serum Blood-bank to linear peptides [1]: 0.5; Binding of Control serum LUMC to linear peptides [1]: 0.6; Binding of Control serum LUMC to looped peptides [1]: 0.5; Recognition of the peptide by the rabbit serum [2]: recognized

**Q.** How did the “Binding of Control Serum Blood-Bank to Looped peptides of the protein X3 of SARS-CoV Urbani” value [1] turn out when QLFKPLTKKNYSELD was run?
**A.** 0.8

**Q.** What about the “Binding of Control serum Blood-bank to linear peptides of the protein X3 of SARS-CoV Urbani” value [1] of the same sequence?
**A.** 0.8

**Q.** And the “Binding of Control serum LUMC to linear peptides of the protein X3 of SARS-CoV Urbani” value [1]?
**A.** 0.8

**Q.** And the “Binding of Control serum LUMC to looped peptides of the protein X3 of SARS-CoV Urbani” value [1]?
**A.** 0.8

**Q.** What about the “Rabbit serum linear peptides” value [2] of the same sequence?
**A.** 0.3

**Q.** What about the “Rabbit serum looped peptides” value [2] of the same sequence?
**A.** 0.3
